Results from ChEMBL document CHEMBL1201862, “PubChem BioAssay data set” (2004).
Calls of active or inactive are those of the source.

Key:
[1] = molecular target: T1, Protein RecA (Mycobacterium tuberculosis, UniProt P9WHJ3); test: Fluorescence Cell-Free Homogeneous Dose Retest to Identify Inhibitors of RecA-Intein Splicing Activity. [Related pubchem assays (depositor defined):AID2097, AID2223, AID489010, AID492950]; type: functional
T1 sequence (P9WHJ3 whole entry): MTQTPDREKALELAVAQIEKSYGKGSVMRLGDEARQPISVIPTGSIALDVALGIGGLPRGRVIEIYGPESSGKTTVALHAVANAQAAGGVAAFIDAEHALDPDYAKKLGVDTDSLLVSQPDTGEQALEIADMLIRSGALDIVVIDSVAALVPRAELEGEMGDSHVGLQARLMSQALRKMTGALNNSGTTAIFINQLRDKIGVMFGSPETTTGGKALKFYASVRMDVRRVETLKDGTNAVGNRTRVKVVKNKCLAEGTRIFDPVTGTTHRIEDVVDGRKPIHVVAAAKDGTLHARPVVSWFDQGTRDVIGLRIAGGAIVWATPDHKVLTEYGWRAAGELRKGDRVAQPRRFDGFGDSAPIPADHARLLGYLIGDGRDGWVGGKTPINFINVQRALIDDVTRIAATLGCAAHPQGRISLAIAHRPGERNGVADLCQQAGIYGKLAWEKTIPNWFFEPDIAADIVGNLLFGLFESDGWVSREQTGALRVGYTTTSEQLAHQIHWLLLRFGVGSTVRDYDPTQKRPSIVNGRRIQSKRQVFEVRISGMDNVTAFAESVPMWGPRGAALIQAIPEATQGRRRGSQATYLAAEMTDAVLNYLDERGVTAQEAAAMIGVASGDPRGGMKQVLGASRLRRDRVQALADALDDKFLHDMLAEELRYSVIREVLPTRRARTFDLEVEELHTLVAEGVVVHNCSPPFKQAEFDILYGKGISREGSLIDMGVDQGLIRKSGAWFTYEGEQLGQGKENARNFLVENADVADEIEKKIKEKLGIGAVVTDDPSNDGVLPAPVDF

[2] = molecular target: Heat shock protein HSP 90-alpha (Homo sapiens, UniProt P07900); type: functional, organism-based
[3] = molecular target: T2, Replicative DNA helicase DnaB (Mycobacterium tuberculosis, UniProt P9WMR3); test: DnaB intein splicing inhibitors, dose response, biochemical, cell-free fluorescence (AID 449749); type: functional
T2 sequence (P9WMR3 whole entry): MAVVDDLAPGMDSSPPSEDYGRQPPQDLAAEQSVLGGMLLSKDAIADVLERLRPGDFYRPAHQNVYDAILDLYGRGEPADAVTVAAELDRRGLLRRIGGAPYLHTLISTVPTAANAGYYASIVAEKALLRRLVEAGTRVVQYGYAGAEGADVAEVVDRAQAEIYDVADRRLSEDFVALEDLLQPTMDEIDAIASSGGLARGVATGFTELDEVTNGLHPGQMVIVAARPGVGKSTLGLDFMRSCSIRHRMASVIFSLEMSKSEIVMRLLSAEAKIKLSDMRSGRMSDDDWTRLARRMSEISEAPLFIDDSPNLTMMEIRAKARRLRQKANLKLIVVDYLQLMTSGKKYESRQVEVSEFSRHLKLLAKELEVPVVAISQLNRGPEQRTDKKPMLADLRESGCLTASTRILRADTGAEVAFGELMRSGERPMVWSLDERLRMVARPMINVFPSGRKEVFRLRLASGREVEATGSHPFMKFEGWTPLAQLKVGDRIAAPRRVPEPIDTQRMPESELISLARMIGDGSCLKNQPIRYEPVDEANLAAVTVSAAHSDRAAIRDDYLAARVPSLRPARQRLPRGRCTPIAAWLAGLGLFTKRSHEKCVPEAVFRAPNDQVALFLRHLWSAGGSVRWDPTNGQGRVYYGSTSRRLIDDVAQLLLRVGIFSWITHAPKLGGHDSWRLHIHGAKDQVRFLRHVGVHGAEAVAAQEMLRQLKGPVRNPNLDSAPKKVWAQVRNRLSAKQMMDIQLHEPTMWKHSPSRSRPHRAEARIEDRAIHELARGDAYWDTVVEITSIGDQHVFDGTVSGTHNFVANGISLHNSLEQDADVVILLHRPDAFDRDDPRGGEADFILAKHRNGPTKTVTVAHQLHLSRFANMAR

[4] = Intein inhibitors as potential Tuberculosis drugs, a cytotoxicity screen. [Related pubchem assays (depositor defined):AID2221, AID2223, AID434968, AID435010, AID449749, AID449750, AID489010]; type: functional
[5] = molecular target: T3, Alkaline phosphatase, tissue-nonspecific isozyme (Homo sapiens, UniProt P05186); test: human TNAP enzyme inhibitors, SAR follow-up, biochemical, luminescent, dose response (AID 1056)
T3 sequence (P05186 whole entry): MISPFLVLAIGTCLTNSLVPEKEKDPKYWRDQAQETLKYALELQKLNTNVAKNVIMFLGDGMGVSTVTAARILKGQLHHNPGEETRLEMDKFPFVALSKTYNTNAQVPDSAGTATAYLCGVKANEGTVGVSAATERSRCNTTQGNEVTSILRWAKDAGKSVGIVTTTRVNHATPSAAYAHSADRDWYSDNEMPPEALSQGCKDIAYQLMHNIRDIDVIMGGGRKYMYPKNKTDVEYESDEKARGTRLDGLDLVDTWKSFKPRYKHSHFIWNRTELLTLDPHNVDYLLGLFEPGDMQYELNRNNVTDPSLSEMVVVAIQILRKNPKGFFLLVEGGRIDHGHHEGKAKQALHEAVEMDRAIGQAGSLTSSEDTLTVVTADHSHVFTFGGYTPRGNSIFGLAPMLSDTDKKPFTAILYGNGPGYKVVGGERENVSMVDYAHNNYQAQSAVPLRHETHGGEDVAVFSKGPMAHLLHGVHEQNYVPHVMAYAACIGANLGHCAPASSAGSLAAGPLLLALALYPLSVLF

[6] = molecular target: Alkaline phosphatase, placental type (Homo sapiens, UniProt P05187); test: PLAP enzyme inhibitors, confirmation, biochemical, luminescence (AID 1512); type: functional
Sequence of Alkaline phosphatase, placental type (P05187 whole entry): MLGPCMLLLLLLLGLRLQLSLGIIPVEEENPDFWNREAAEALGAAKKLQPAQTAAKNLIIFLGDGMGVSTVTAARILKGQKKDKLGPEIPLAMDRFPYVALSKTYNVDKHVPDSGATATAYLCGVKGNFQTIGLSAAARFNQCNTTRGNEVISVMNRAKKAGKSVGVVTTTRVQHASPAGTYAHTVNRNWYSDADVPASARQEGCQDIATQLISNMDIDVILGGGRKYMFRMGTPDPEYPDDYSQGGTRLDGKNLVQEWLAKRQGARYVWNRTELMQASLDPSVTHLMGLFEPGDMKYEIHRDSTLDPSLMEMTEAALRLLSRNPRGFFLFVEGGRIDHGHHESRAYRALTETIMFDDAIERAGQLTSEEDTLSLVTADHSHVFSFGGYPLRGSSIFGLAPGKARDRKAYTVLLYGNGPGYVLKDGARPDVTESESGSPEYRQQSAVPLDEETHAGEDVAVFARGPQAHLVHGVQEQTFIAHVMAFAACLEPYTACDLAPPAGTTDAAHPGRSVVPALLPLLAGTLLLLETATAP

[7] = molecular target: Glyceraldehyde-3-phosphate dehydrogenase (Homo sapiens, UniProt P04406)
Sequence of Glyceraldehyde-3-phosphate dehydrogenase (P04406 whole entry): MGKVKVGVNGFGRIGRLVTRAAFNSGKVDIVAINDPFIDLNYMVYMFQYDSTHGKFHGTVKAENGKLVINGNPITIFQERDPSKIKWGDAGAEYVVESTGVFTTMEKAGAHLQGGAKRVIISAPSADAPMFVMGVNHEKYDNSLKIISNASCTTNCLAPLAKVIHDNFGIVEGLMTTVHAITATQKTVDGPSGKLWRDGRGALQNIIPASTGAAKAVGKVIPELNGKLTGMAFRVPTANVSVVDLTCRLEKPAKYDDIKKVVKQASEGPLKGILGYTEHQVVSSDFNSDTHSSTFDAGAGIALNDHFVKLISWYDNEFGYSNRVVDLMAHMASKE

[8] = system: BJ; test: cytotoxicity toward BJ-TERT-LT-ST fibroblasts, dose response, cell-based, RAS-independent, luminescence (AID 1935); type: functional; settings: Homo sapiens;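 further: BJ fibroblasts immortalized with TERT plus LT and ST oncogenes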
[9] = system: BJ; test: cells; type: functional, cell-based; settings: Homo sapiens
[10] = molecular target: T4, Protein skinhead-1 (Caenorhabditis elegans, UniProt P34707); type: functional
T4 sequence (P34707 whole entry): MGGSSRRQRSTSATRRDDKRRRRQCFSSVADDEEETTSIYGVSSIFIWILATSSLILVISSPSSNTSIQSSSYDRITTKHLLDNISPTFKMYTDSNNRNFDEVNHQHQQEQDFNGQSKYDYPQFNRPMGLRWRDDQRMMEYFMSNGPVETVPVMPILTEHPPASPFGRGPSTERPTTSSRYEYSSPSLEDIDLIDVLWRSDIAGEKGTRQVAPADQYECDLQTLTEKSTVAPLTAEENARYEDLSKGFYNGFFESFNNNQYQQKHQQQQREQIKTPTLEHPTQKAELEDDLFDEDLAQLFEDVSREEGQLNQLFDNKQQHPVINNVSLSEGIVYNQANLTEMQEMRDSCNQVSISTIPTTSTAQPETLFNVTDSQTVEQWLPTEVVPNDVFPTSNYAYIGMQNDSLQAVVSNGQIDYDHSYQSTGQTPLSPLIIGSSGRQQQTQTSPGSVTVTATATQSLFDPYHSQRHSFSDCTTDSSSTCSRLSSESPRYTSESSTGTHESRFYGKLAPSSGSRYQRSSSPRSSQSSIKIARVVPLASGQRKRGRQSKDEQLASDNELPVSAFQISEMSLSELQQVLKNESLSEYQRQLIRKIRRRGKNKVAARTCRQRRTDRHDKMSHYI

[11] = cytotoxicity toward DRD oncogenic fibroblasts, dose response, cell-based, non-viral oncogenic, luminescence (AID 1934); type: functional; settings: Homo sapiens
[12] = system: BJ; test: cytotoxicity toward BJ-TERT fibroblasts, dose response, cell-based, RAS-independent, luminescence (AID 1933); type: functional; settings: Homo sapiens
[13] = cytotoxicity in HEK-293T cells, dose response, cytotoxicity control for TCR NF-kB inhibitor project, luminescence, T-cell screen hits (AID 489026); type: functional, cell-based;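 further: cells exposed to compound about 14 hours before the viability readout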
[14] = inhibitors of intracellular T. cruzi replication, confirmation, NIH3T3 host cells, beta-gal luminescence (AID 2044); type: functional, cell-based;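 further: intracellular parasites grown in NIH/3T3 mouse fibroblasts as host cells; luminescent beta-galactosidase reporter signal from transgenic T. cruzi replicating inside host cells; inhibitors lower the luminescence signal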
[15] = system: Streptococcus; test: Group A Streptococcus viability loss, dose response, counter-screen for streptokinase expression inhibitor project, luminescence, BacTiterGlo (AID 1915); type: functional, organism-based;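 further: potency for reduction of bacterial viability or growth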
[16] = system: INS1; test: beta cell apoptosis inhibitors, cytokine rescue, dose response, luminescence, retest (AID 449756); type: functional, cell-based; settings: Rattus norvegicus;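 further: cell death triggered by IL-1 beta plus TNF-alpha plus IFN-gamma mixture; protective hits raise ATP signal compared with cytokine alone wells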
[17] = system: Streptococcus sp. 'group A'; test: growth inhibition of control SK(-) GAS strain, dose response, counter-screen for streptokinase expression inhibitor project, luminescence, kanamycin, BacTiterGlo, confirmation (AID 1900); type: functional, organism-based
[18] = cytotoxicity toward NIH3T3 fibroblasts, dose response, counter-screen, cell-based, ATP luminescence, mouse fibroblasts (AID 2010); type: functional;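 further: cells exposed to compound for about 90 hours before reading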
[19] = molecular target: T5, Orexin/Hypocretin receptor type 1 (Homo sapiens, UniProt O43613); test: Homogeneous Time Resolved Fluorescence (HTRF)-based cell-based high throughput dose response assay for antagonists of the orexin 1 receptor (OX1R; HCRTR1). [Related pubchem assays (depositor defined):AID434989, AID435008, AID463079, AID485270, AID492963, AID492964, AID492965, AID493232, AID504717, AID504718]; type: functional
T5 sequence (O43613 whole entry): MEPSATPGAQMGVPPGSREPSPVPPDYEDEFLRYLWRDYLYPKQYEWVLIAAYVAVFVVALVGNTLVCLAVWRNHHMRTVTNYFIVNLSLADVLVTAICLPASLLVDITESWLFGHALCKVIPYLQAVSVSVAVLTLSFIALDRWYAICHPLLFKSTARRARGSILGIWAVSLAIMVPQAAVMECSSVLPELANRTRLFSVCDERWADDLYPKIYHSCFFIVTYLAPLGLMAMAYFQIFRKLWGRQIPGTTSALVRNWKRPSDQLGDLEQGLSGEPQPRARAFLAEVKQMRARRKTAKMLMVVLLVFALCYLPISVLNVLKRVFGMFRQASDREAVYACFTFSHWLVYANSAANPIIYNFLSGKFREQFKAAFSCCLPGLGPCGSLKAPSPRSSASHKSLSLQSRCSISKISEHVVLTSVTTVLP

[20] = molecular target: T5, Orexin/Hypocretin receptor type 1; test: Fluorescence-based cell-based high throughput dose response assay for antagonists of the orexin 1 receptor (OX1R; HCRTR1). [Related pubchem assays (depositor defined):AID434989, AID435008, AID463079, AID485270, AID492963, AID492964, AID492965, AID493232, AID504717, AID504718]; type: functional
[21] = system: CHO-K1; test: (§1) Counterscreen for antagonists of the orexin 1 receptor (OX1R; HCRTR1): Homogeneous time resolved fluorescence (HTRF)-based cell-based dose response assay to identify antagonists of the parental CHO-K1 cell line. [Related pubchem assays (depositor defined):AID434989, AID435008, AID463079, AID485270, AID492963, AID492964, AID492965, AID493232, AID504699, AID504701]; type: functional; settings: Cricetulus griseus
[22] = as §1, with “Fluorescence-based” for “Homogeneous time resolved fluorescence (HTRF)-based”, “cell-based high throughput” for “cell-based”, “CHO” for “CHO-K1”; type: functional
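Wherever CC50 is given: cells exposed to compound for 72 hours before luminescence readout.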

Structure (SMILES): CC1(C)N=C(SCC(=O)Nc2ccc(Cl)cc2)C(c2ccc(Cl)cc2)=N1
- EC50 [1]: 4.7 µM (active)
- AC50 [2]: 11.3 µM (active)
- AC50 [3]: 3.03 µM (active)
- CC50 [4]: > 40 µM (active)

Structure (SMILES): O=[N+]([O-])c1ccc(-c2n[nH]c(-c3ccccc3)n2)cc1
- IC50 [5]: > 100 µM (inactive)
- IC50 [6]: > 100 µM (inactive)
- IC50 [7]: > 100 µM (not active)

Structure (SMILES): O=C(c1ccc(Br)cc1)c1cc([N+](=O)[O-])ccc1N1CCOCC1
- EC50 [8]: 2.91 µM (inconclusive)
- EC50 [9]: 14.8 µM (active)
- IC50 [10]: 44.7 µM (active)
- EC50 [11]: 2.55 µM (active)
- EC50 [12]: 7.48 µM (active)
- IC50 [13]: > 80 µM (inactive)

Structure (SMILES): O=C(NC(N=C(S)Nc1ccc(Cl)cc1Cl)C(Cl)(Cl)Cl)c1cccc([N+](=O)[O-])c1 (stereo not given)
- EC50 [14]: 1.14 µM (active)
- EC50 [15]: 4.8 µM (active)
- AC50 [16]: 6.08 µM (active)
- EC50 [17]: 1.37 µM (active)
- EC50 [18]: 8.05 µM (active)
- CC50 [4]: 11 µM (active)

Structure (SMILES): CCOC(=O)C1=C(COC(=O)c2ccc3ccccc3c2O)NC(=O)NC1C (stereo not given)
- IC50 [19]: 1.62 µM (active)
- IC50 [20]: 2.35 µM (active)
- IC50 [21]: 33.6 µM (inactive)
- IC50 [22]: 37.2 µM (inactive)

Structure (SMILES): O=C(Cn1cnnn1)c1ccc(O)c(O)c1
- IC50 [5]: > 100 µM (inactive)
- IC50 [6]: 16.4 µM (active)
